PubChem BioAssay (NCI)
Several values for one entry are separate records, joined by “and”; a condition that tells them apart may be missing. Equal values may be shown once.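 All cell lines were grown in 96-well plates and treated with compound for 48 hours. Here, GI50 denotes the concentration required for 50% inhibition of growth. TGI denotes the concentration required for complete inhibition of growth.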

Tests used:
Test in all cases: DTP human tumour cell line panel, 48 h
M19-MEL melanoma = test system: M19-MEL melanoma
SNB-75 CNS = test system: SNB-75 CNS
KM12 colon = test system: KM12 colon
SNB-78 CNS = test system: SNB-78 CNS
MOLT-4 leukemia = test system: MOLT-4 leukemia
U251 CNS = test system: U251 CNS
CCRF-CEM leukemia = test system: CCRF-CEM leukemia
HT29 colon = test system: HT29 colon
TK-10 renal = test system: TK-10 renal
HOP-92 NSCLC = test system: HOP-92 NSCLC

| Compound | TGI (M19-MEL melanoma) | TGI (SNB-75 CNS) | TGI (KM12 colon) | TGI (SNB-78 CNS) | TGI (MOLT-4 leukemia) | TGI (U251 CNS) | TGI (CCRF-CEM leukemia) | TGI (HT29 colon) | TGI (TK-10 renal) | TGI (HOP-92 NSCLC) | GI50 (SNB-78 CNS) | GI50 (TK-10 renal) | GI50 (CCRF-CEM leukemia) | GI50 (SNB-75 CNS) | GI50 (KM12 colon) | GI50 (HOP-92 NSCLC) | GI50 (MOLT-4 leukemia) | GI50 (U251 CNS) | GI50 (HT29 colon) |
| --- | --- | --- | --- | --- | --- | --- | --- | --- | --- | --- | --- | --- | --- | --- | --- | --- | --- | --- | --- |
| C[N+](C)(C)CC1CCC(C[N+](C)(C)C)C1=NO (stereo not drawn) | > 100 µM | > 100 µM | > 100 µM | > 100 µM | > 100 µM | > 100 µM | > 100 µM | > 100 µM |  |  |  |  |  |  |  |  |  |  |  |
| COC(=O)Cc1cc(=O)n2c3ccccc3n(C)c2c1C#N | > 100 µM | > 100 µM | > 100 µM | > 100 µM | > 100 µM | > 100 µM |  | > 100 µM | > 100 µM |  |  |  |  |  |  |  |  |  |  |
| COC(=O)[C@@]12OC[C@]34[C@H]([C@@H](O)[C@@H]1O)[C@@]1(C)CC(=O)C(O)=C(C)[C@@H]1C[C@H]3OC(=O)[C@H](OC(=O)/C=C(\C)C(C)C)[C@@H]24 |  | 0.0186 µM and 0.0203 µM | 0.03 µM and 0.146 µM and 0.0574 µM | 0.00899 µM and 0.0427 µM and 0.0707 µM |  | 0.0206 µM and 0.0657 µM | 0.0184 µM and 0.182 µM | 0.0161 µM and 0.0718 µM | 0.0719 µM and 0.0333 µM | 0.0378 µM and 0.0921 µM | 0.00089 µM | 0.0235 µM | 0.00224 µM |  |  |  |  |  |  |
| CC(C)c1ccc(O)c(Cc2cc(C(C)C)cc(Cc3cc(C(C)C)ccc3O)c2O)c1 | 2.99 µM | 5.03 µM | 3.74 µM | 4.54 µM | 4.68 µM | 3.17 µM | 6.91 µM | 4.28 µM | 4.72 µM | 3.33 µM |  |  |  |  |  |  |  |  |  |
| FC(F)(F)c1ccccc1C1SCc2nc3ccccc3n21 (stereo not drawn) | > 100 µM | > 100 µM | > 100 µM | > 100 µM | > 100 µM | > 100 µM | > 100 µM | > 100 µM | > 100 µM | 53.3 µM |  |  |  |  |  |  |  |  |  |
| CC(=O)CCC1(c2ccccc2)OC(=O)C(C#N)=C1c1ccccc1 (stereo not drawn) | > 100 µM | 74.1 µM | > 100 µM | > 100 µM | > 100 µM | > 100 µM | > 100 µM | > 100 µM | > 100 µM | > 100 µM |  |  |  |  |  |  |  |  |  |
| Cc1cc(N(CCC#N)CCC#N)ccc1/C=C(\NC(=O)/C=C/c1ccccc1)C(=O)Nc1ccccc1Cl | > 100 µM |  | > 100 µM | > 100 µM | > 100 µM | > 100 µM | > 100 µM | > 100 µM |  | 94.5 µM |  |  |  |  |  |  |  |  |  |
| NNc1c(C(N)=O)c2c(N)ncnc2n1C1OC(CO)C(O)C1O (stereo not drawn) |  | 1.09 µM and 0.448 µM | 12.4 µM |  | 0.103 µM and 0.495 µM | 12.9 µM and > 100 µM | < 0.0483 µM and 0.12 µM |  | 1.14 µM and 1.49 µM | 0.347 µM and 0.333 µM |  | 0.0243 µM and 0.0434 µM | < 0.0146 µM | 0.106 µM | 0.0453 µM and 0.0475 µM | 0.0285 µM and 0.0507 µM | 0.0232 µM and 0.0964 µM | 0.023 µM and 0.0635 µM | < 0.0118 µM |
| CC[C@H](C)[C@H](NC(=O)C12C3C4C1C1C2C3C41NC)C(=O)N(C)[C@H](C[C@@H](OC(C)=O)c1nc(C(=O)N[C@@H](Cc2ccccc2)C[C@H](C)C(=O)OC)cs1)C(C)C (stereo partly drawn) |  | > 14.3 µM | > 14.3 µM |  | > 14.3 µM | > 14.3 µM | > 14.3 µM | > 4.78 µM | > 14.3 µM | > 14.3 µM |  | > 4 µM | 0.445 µM | 0.319 µM | 0.517 µM | > 6.28 µM | 0.713 µM | 0.594 µM | 0.29 µM |
| Nc1ccc(CC[C@H]2CCC/C=C/[C@@H]3C[C@H](O)C[C@H]3[C@H](O)/C=C/C(=O)O2)cc1 |  | > 100 µM | 0.0615 µM |  | 0.0847 µM | > 100 µM | > 64.9 µM | 0.577 µM | 0.831 µM | 0.53 µM |  | 0.0382 µM | 0.0437 µM | 0.0189 µM | 0.0235 µM | 0.0436 µM | 0.029 µM | 0.048 µM | 0.0336 µM |
| CCn1c(-c2nonc2N)nc2ccccc21 |  | > 25 µM | > 25 µM |  | > 25 µM | > 25 µM | > 25 µM | > 25 µM | > 25 µM | > 25 µM |  | 7.32 µM | > 25 µM | > 25 µM | > 25 µM | 17 µM | > 25 µM | > 25 µM | > 25 µM |
| CCCCCCCCCCCCCCCCCc1nc(Cl)nc(Cl)c1Cl |  | > 100 µM | > 100 µM |  | > 100 µM | > 100 µM | > 100 µM | > 100 µM | > 100 µM | > 100 µM |  |  |  |  |  |  |  |  |  |
| O=C1/C(=C/c2ccc(Cl)cc2)CCC1CNc1ccc(Cl)cc1 (stereo not drawn) | > 50.4 µM | 85.2 µM | 11.7 µM | > 100 µM | 27.5 µM | 29.6 µM | 15.5 µM | 41.1 µM | 21.8 µM | 50.4 µM |  |  |  |  |  |  |  |  |  |
| Cn1cc(-c2cc(-c3cn(C)c4ccccc34)[nH]n2)c2ccccc21 |  | 69.9 µM | > 100 µM |  | 20.8 µM | 46.9 µM | 29.3 µM | > 100 µM | > 100 µM | 9.57 µM |  | 37.4 µM | 14.4 µM | 18.4 µM | 4.58 µM | 2.06 µM | 4.75 µM | 12.9 µM | 5.35 µM |
| Cc1c(Cl)ccc2c1NC(=O)C2(O)CC(=O)c1ccc(Cl)cc1 (stereo not drawn) | 26.9 µM | > 100 µM | > 100 µM | > 100 µM | 63.7 µM | > 100 µM | 53.5 µM | > 66.1 µM | > 100 µM | > 100 µM |  |  |  |  |  |  |  |  |  |
| CCN(CC)c1ccc(/C=N/NC(=O)Cc2ccc(Nc3ccnc(C(F)(F)F)c3)cc2)c(O)c1 |  | > 61.1 µM | > 100 µM |  | > 100 µM | > 100 µM | > 100 µM | > 68.2 µM | > 100 µM | > 100 µM |  | 0.461 µM | 0.256 µM | 2.12 µM | 0.826 µM | 4.06 µM | 0.37 µM | 0.586 µM | 0.638 µM |
| CC(=O)c1cc2c(N)c(C(=O)Nc3cccc4ccccc34)sc2nc1C |  | 35.5 µM | > 50 µM |  | > 50 µM | > 50 µM | > 50 µM | > 50 µM | > 50 µM | > 50 µM |  | 3.77 µM | 2.02 µM | 1.98 µM | 1.89 µM | 6.78 µM | 2.19 µM | 1.92 µM | 1.74 µM |
| Cc1cc(Cl)ccc1N=C1NC(=O)C(CC(=O)Nc2cccc(Cl)c2)S1 (stereo not drawn) | > 100 µM | > 100 µM | > 100 µM | > 100 µM |  | > 100 µM | > 100 µM | > 100 µM | > 100 µM | 69.8 µM |  |  |  |  |  |  |  |  |  |
